These results are taken from patent US4988692A, “2,4-dioxo-5-phenyl-2,3,4,5-tetrahydro-1H-1,5-benzodiazepines” (Uclaf; Roussel, priority 1985, dated 1991).

For one test, the target named is T1, Peripheral CCK receptors (Rattus norvegicus, UniProt P30551).
T1 construct: The pancreases of 3 male rats weighing 150-200 g were removed and ground up with Polytron; from tissue; host or cells: rat pancreas homogenate (30,000 g pellet)
T1 sequence (P30551 1-444): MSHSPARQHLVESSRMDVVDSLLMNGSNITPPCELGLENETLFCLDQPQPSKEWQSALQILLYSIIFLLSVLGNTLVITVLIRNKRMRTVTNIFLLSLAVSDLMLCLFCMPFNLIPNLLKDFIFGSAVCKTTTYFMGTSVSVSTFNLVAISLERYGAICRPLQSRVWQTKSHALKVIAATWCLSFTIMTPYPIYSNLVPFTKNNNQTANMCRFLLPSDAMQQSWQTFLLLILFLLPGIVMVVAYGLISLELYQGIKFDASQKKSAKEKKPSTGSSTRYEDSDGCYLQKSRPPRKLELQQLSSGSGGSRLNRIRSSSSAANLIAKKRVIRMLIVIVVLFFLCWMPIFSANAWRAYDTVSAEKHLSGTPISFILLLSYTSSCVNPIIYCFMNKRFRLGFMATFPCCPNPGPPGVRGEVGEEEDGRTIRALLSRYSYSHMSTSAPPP
Nature of the test: Peripheral receptors: 3H CCK8 binding, rat pancreas homogenate. Here is the method:
The pancreases of 3 male rats weighing 150-200 g were removed and ground up with Polytron (4 grindings, speed 3, with an interval of 10 seconds between the grindings) and the homogenate was filtered through a gauze and then centrifuged at 30,000 g for 30 minutes. The residues obtained were taken up in 400 volumes (600 ml) of Tris 50 mM HCl pH 7.4 buffer containing BSA 2 g/l., bacitracin 0.1 mM, MgCl2 5 mM, dithiothreitol 5 mM. 2 ml aliquots of the homogenate were incubated at 25° C. for 60 minutes in the presence of […] 3H CCK8 and of the test product (10,000 μM for 1 dose, or with one range of 7 doses) and of cold CCK8 (10^-6 M) which was the reference product. After returning to 0° C., the aliquots were filtered on Whatman GF/B filters, pre-washed in a solution of polyethylene imine at 0.05% and washed with 3×5 ml of buffer Tris HCl 50 mM, pH 7.4. The results were expressed in IC50, the concentration necessary to inhibit by 50% the fixed specific radioactivity, IC50 n mol

A further test has as its target T2, Central CCK receptors (Rattus norvegicus, UniProt P30553).
T2 construct: The cortices of 20 male rats weighing 150 to 200 g were removed, and were ground up with Polytron in sucrose; from tissue; host or cells: rat cerebral cortex homogenate (washed membrane pellet)
T2 sequence (P30553 1-452): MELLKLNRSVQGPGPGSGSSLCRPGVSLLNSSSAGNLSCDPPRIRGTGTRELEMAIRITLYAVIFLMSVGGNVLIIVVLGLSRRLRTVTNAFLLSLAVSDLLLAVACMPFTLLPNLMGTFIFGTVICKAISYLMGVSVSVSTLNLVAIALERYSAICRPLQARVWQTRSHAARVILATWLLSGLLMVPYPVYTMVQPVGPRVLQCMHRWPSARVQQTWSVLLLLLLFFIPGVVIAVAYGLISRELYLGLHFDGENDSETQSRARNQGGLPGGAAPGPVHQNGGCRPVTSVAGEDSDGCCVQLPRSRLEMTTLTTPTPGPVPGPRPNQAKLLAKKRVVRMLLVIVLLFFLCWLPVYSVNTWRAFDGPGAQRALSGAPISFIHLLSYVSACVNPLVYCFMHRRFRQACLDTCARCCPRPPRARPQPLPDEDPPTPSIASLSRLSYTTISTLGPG
In words: Central receptors: 3H CCK8 binding, rat cortex homogenate. As to conditions: 0.5 nM 3H CCK8, 25° C., 30 minutes. Here is the method: The cortices of 20 male rats weighing 150 to 200 g were removed, and were ground up with Polytron in sucrose 0.32M. After centrifuging, the supernatant was recovered and centrifuged. The residues were re-suspended in 120 ml of Hepes buffer pH 7.4 (Hepes 10 mM, NaCl 130 mM, MgCl2, 6H2 O 5 mM, bacitracin 250 mg/l., PMSF 1 mg/l), and re-centrifuged. The residues were taken up in 120 ml of Hepes buffer pH 7.4 and re-centrifuged at 30,000 g for 30 minutes. The residues thus obtained were taken up in 500 ml of Hepes buffer pH 7.4, which enabled 240 aliquots of 2 ml of homogenate to be obtained. The incubation was effected at 25° C. for 30 minutes in the presence of 0.5 nM of 3H CCK8 and the test product (10,000 μM for 1 dose, or with a range of 7 doses or of cold CCK8 (10^-6 M), which was the reference product). After returning the aliquots of the homogenate to 0° C., they were filtered on Whatman GF/B filters and the filters were washed with 3×5 ml of a Tris HCl 50 mM pH 7.4 buffer. The results are expressed is IC50 which is the concentration necessary to inhibit by 50% the fixed specific radioactivity.

Test [1] concerns CCK8-induced contractions of isolated ileum. Nature of the test: Action on the isolated ileum of a guinea-pig (antagonism of CCK8 contractions). As to conditions: product 10^-7 M, one minute contact, CCK8 1.10^-8 M. Here is the method: The test was carried out on fragments of ileum from male guinea-pigs placed under a tension of 1 g in a Krebs solution aerated with carbogen and maintained at 37° C. The contractions were recorded with a microdynamometer connected to a polygraph. The ileum was left at rest for 30 minutes and then CCK8 was added to the bath in a concentration of 1.10^-8 M, followed by rinsing. The test product was added to the bath, left in contact with the organ for one minute and then CCK8 (1.10^-8 M) was added to the bath. The possible antagonism was expressed by comparing the contractions caused by the CCK8 before and after contact with the product under test.

The next test has as its system food consumption. Nature of the test: Action on the alimentary intake in a rat. It is filed as in vivo. The following applies: 10 mg/kg intraperitoneal, consumption followed hourly for 5 hours. Here is the method:
The tests were carried out on groups of 5 rats weighing 250 g±10 g and the animals were individually placed in cages with a trough as described by Fregly (J. Appl. Physiol Vol. 15 (1960), p. 539) which avoided wasting of the powdered foodstuffs. The rats were accustomed to taking their daily portion over 5 consecutive hours with as much drinking water as desired being offered in glass feeding bottles. The quantities of food ingested were determined individually by the weight of the troughs and the comsumptions were followed hourly for 5 hours after intraperitoneal administration of 10 mg/kg of the compound. The quantities consumed are expressed in g/100 g of body weight per hour. The averages are compared to those obtained with control animals by a DUNNETT test.

In general, IC50 refers to the concentration that gives 50% inhibition. Low values mean greater potency, high ones weaker potency. Consider `CN1C(=O)C(NC(=O)c2cc3ccccc3[nH]2)C(=O)N(c2ccccc2)c2ccccc21` (stereo not drawn) [Example 2], for which the values for the IC50 on Peripheral CCK receptors and at Central CCK receptors were 14 nM and more than 10000 nM, respectively. Further, in test [1], the “antagonism of contractions caused by CCK8” value is on record as “significant antagonist activity”.

On to `CN1C(=O)C(NC(=O)c2cc3ccccc3[nH]2)C(=O)N(c2ccccc2)c2cc(Cl)ccc21` (stereo not drawn) [Example 1, N-(7-chloro-2,4-dioxo-1-methyl-5-phenyl-2,3,4,5-tetrahydro-1H-1,5-benzodiazepin-3-yl)-1H-indole-2-carboxamide], for which the IC50 was found to be 20 nM at Peripheral CCK receptors and 2200 nM at Central CCK receptors. The “reduction of food consumption in relation to control animals (anorexigenic activity)” value in the test on food consumption was “more than 50%”.
